Assays:
[1] = test system: A9; assay: Stimulating PI (phosphoinositol) hydrolysis in A9L-m1 cells.; format: functional, Mus musculus
[2] = test system: Mus musculus; assay: Minimum effective dose after ip administration, to stimulate salivation in mice; format: functional; settings: read-out: MED
[3] = test system: Mus musculus; assay: Effect on salivation in mice, after intraperitoneal administration of 10 mg/kg, activity expressed as a score using a scale of 0-2.; format: functional
[4] = molecular target: T1, Muscarinic acetylcholine receptor M1 (Rattus norvegicus, UniProt P08482); assay: Binding activity against muscarinic acetylcholine receptor M1 in rat brain, using [3H]OXO-M as the radioligand.; format: tissue-based
T1 sequence (P08482 whole entry): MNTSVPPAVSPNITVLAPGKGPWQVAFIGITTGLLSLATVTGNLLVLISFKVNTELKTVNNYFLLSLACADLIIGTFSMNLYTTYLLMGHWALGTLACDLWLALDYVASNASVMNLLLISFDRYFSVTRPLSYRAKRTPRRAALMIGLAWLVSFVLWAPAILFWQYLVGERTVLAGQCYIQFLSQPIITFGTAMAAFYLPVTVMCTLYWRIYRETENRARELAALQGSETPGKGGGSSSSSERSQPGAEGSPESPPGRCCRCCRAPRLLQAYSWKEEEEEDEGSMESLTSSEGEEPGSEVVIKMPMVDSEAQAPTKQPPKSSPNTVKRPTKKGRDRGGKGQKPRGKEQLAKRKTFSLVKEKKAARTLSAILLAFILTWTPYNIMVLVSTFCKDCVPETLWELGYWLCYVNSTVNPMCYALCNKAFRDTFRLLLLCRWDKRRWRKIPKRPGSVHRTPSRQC

[5] = molecular target: T1, Muscarinic acetylcholine receptor M1; assay: Binding activity against muscarinic acetylcholine receptor M1 in rat brain, using [3H]-Pz as the radioligand.; format: tissue-based

Structure (SMILES) | Max [1] [%] | minimal effective dose [2] [mg/kg] | Score [3] | IC50 [4] [nM] | IC50 [5] [nM]
c1cnc(C2CN3CCC2CC3)cn1 (stereo not given) | 80 | 0.1 | 1.4 | 4 | 74
Clc1cncc(C2CN3CCC2CC3)n1 (stereo not given) | 8 | 3 | 1 | 4.6 | 4.7
Cc1nccnc1C1CN2CCC1CC2 (stereo not given) | 4 | 3 | 2 | 23 | 80
CCCCCCOc1nccnc1C1=CCCCN(C)C1 | 2 |  | 0 | 117 | 26
CCCCCOc1nccnc1C1CN2CCC1CC2 (stereo not given) | 32 |  | 0.2 | 6 | 7
CCCCSc1nccnc1C1CN2CCC1CC2 (stereo not given) | 5 |  | 0 | 0.5 | 0.4
CCOc1nccnc1C1CN2CCC1CC2 (stereo not given) | 1 |  | 0 | 23 | 38
CCCCCCCOc1nccnc1C1CN2CCC1CC2 (stereo not given) | 35 |  | 0 | 10 | 13
CCCCCCOc1nccnc1C1=CCCCNC1 | 5 |  | 0 | 167 | 44
CCCCCCOc1nccnc1[C@@H]1CN2CCC1C2 (stereo not given in full) | 31 |  | 0.6 | 46 | 58
COc1nccnc1C1CN2CCC1CC2 (stereo not given) | 1 |  | 0 | 72 | 111
CCCCCCOc1nccnc1[C@@H]1CN2CCCC1C2 (stereo not given in full) | 4 |  | 0 | 180 | 120
CCCCCCOc1nccnc1C1CN2CCC1CC2 (stereo not given) | 40 |  | 0 | 4.5 | 6
CCCCCCOc1nccnc1C1=CCCN(C)C1 | 12 |  | 0 |  | 
CCCCCCOc1nccnc1[C@H]1CN2CCC1CC2 | 46 |  | 0 | 11.3 | 10.6
CCCCCCOc1nccnc1[C@@H]1CN2CCC1CC2 | 33 |  | 0 | 2.5 | 3.7
CCCCOc1nccnc1C1CN2CCC1CC2 (stereo not given) | 15 |  | 0 | 5 | 10
CCCOc1nccnc1C1CN2CCC1CC2 (stereo not given) | 4 |  | 0 | 9 | 19
CCCCCCOc1nccnc1[C@H]1CN2CCC1C2 (stereo not given in full) | 40 | 1 | 1.6 | 5.6 | 7
Clc1nccnc1C1CN2CCC1CC2 (stereo not given) | 13 | 10 | 1.2 | 56 | 180
CCCCCSc1nccnc1C1CN2CCC1CC2 (stereo not given) | 7 |  | 0 | 0.7 | 1.1
CCCCCCSc1nccnc1C1CN2CCC1CC2 (stereo not given) | 16 |  | 0 | 2 | 2.2
CCCCCCOc1nccnc1[C@H]1CN2CCCC1C2 (stereo not given in full) | 12 |  | 0 | 4 | 2.5
C[N+](C)(C)CC#CCOC(=O)Nc1cccc(Cl)c1.[Cl-] | 52 |  |  |  | 
COC(=O)C1=CCCN(C)C1 [ARECOLINE] | 73 |  | 0 |  | 
CCCCCCOc1nsnc1C1=CCCN(C)C1 [XANOMELINE] | 55 |  | 0 |  | 

From ChEMBL document CHEMBL1128691, “Functionally selective M1 muscarinic agonists. 3. Side chains and azacycles contributing to functional muscarinic selectivity among pyrazinylazacycles” (J Med Chem, 1995)
